Calls of active or inactive are those of the source.
Assays:
Type in all cases: functional, organism-based
[1] = system: Escherichia coli; assay: Antimicrobial activity against Escherichia coli at 200 ug/disk
[2] = system: Staphylococcus aureus; assay: Antibacterial activity against Staphylococcus aureus at 200 ug/disk
[3] = system: Candida albicans; assay: Antifungal activity against Candida albicans at 200 ug/disk

Measured: Activity

C/C=C\C(=O)O[C@@H]1[C@H](O)[C@@H](O)CO[C@@H]1C
inactive: [1] | [2] | [3]

CC1=C2CC(C)(C)C[C@H]3C[C@@]3(C(=O)O)[C@@H]2CC1=O
inactive: [1] | [2] | [3]

C[C@@H]1C[C@@H](O)[C@@H](O)CO1
inactive: [1] | [2] | [3]

C[C@@H]1C[C@H](O)[C@@H](O)CO1
inactive: [1] | [2] | [3]

C[C@@H]1C[C@@H](O)[C@H](O)CO1
inactive: [1] | [2] | [3]
